Where “and” joins values, the source holds several entries; their conditions need not be identical. Equal entries are not always repeated. Inconclusive results are not listed.
System: CD8F1 mice, subcutaneous mammary adenocarcinoma, T/C%
Assay: NCI In Vivo Anticancer Drug Screen. Data for tumor model Mammary Adenocarcinoma CD8F1 (subcutaneous) in CD8F1
Details: higher = larger tumour
Method in brief: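 Tumor-bearing mice, transplantable model; readout survival or tumor size; value = treated (T) / vehicle control (C).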

[1] = endpoint: median tumor weight (est.), dose: 12.5 mg/kg/injection, schedule: Q07DX005 (ip), vehicle: saline with Tween-80
[2] = endpoint: median tumor weight (est.), dose: 25.0 mg/kg/injection, schedule: Q07DX005 (ip), vehicle: saline with Tween-80
[3] = endpoint: median tumor weight (est.), dose: 50.0 mg/kg/injection, schedule: Q07DX005 (ip), vehicle: saline with Tween-80
[4] = endpoint: median tumor weight (est.), dose: 100.0 mg/kg/injection, schedule: Q07DX005 (ip), vehicle: saline with Tween-80
[5] = endpoint: median tumor weight (est.), dose: 200.0 mg/kg/injection, schedule: Q07DX005 (ip), vehicle: saline with Tween-80

## O=S(=O)(O)O.[NH-]C1CCCCC1[NH-].[Pt+2] (configuration not stated)
endpoint: mean tumor weight, dose: 0.63 mg/kg/injection, schedule: Q07DX006 (ip), vehicle: water
  T/C: 54 % of control
endpoint: mean tumor weight, dose: 1.25 mg/kg/injection, schedule: Q07DX006 (ip), vehicle: water
  T/C: 44 % of control
endpoint: mean tumor weight, dose: 2.5 mg/kg/injection, schedule: Q07DX006 (ip), vehicle: water
  T/C: 4 % of control
endpoint: mean tumor weight, dose: 5.0 mg/kg/injection, schedule: Q07DX006 (ip), vehicle: water
  T/C: 1 % of control
endpoint: median tumor weight (est.), dose: 0.63 mg/kg/injection, schedule: Q07DX005 (ip), vehicle: dextrose
  T/C: 81 % of control
endpoint: median tumor weight (est.), dose: 0.63 mg/kg/injection, schedule: Q07DX005 (ip), vehicle: water
  T/C: 74 % of control
endpoint: median tumor weight (est.), dose: 1.25 mg/kg/injection, schedule: Q07DX005 (ip), vehicle: dextrose
  T/C: 41 % of control
endpoint: median tumor weight (est.), dose: 1.25 mg/kg/injection, schedule: Q07DX005 (ip), vehicle: water
  T/C: 55 % of control
endpoint: median tumor weight (est.), dose: 2.5 mg/kg/injection, schedule: Q07DX005 (ip), vehicle: dextrose
  T/C: 83 % of control
endpoint: median tumor weight (est.), dose: 2.5 mg/kg/injection, schedule: Q07DX005 (ip), vehicle: water
  T/C: 41 % of control
endpoint: median tumor weight (est.), dose: 5.0 mg/kg/injection, schedule: Q07DX005 (ip), vehicle: dextrose
  T/C: 33 % of control
endpoint: median tumor weight (est.), dose: 5.0 mg/kg/injection, schedule: Q07DX005 (ip), vehicle: water
  T/C: 3 % of control

## COC1=C(OC)C(=O)C(SC/C=C(\C)CCCC(C)CCCC(C)CCCC(C)C)=CC1=O (configuration not stated)
[1]
  T/C: 164 % of control
[2]
  T/C: 110 % of control
[3]
  T/C: 32 % of control
[4]
  T/C: 68 % of control
[5]
  T/C: 85 % of control
endpoint: median tumor weight (est.), dose: 400.0 mg/kg/injection, schedule: Q07DX005 (ip), vehicle: saline with Tween-80
  T/C: 52 % of control

## CC1CCC2N(C1)CC1C3CC4C(CC(=O)C5CC(O)CCC54C)C3CCC1C2(C)O (configuration not stated)
endpoint: mean tumor weight, dose: 2.5 mg/kg/injection, schedule: Q07DX006 (ip), vehicle: saline with Tween-80
  T/C: 87 % of control
endpoint: mean tumor weight, dose: 5.0 mg/kg/injection, schedule: Q07DX006 (ip), vehicle: saline with Tween-80
  T/C: 81 % of control
endpoint: mean tumor weight, dose: 10.0 mg/kg/injection, schedule: Q07DX006 (ip), vehicle: saline with Tween-80
  T/C: 90 % of control
endpoint: mean tumor weight, dose: 20.0 mg/kg/injection, schedule: Q07DX006 (ip), vehicle: saline with Tween-80
  T/C: 89 % of control

## Nc1ncn(C2CC(O)C(CO)O2)c(=O)n1 (configuration not stated)
endpoint: median tumor weight (est.), dose: 0.37 mg/kg/injection, schedule: Q07DX005 (ip), vehicle: saline
  T/C: 37 % of control
endpoint: median tumor weight (est.), dose: 0.75 mg/kg/injection, schedule: Q07DX005 (ip), vehicle: saline
  T/C: 25 % of control
endpoint: median tumor weight (est.), dose: 1.5 mg/kg/injection, schedule: Q07DX005 (ip), vehicle: saline
  T/C: 9 % of control
endpoint: median tumor weight (est.), dose: 3.0 mg/kg/injection, schedule: Q07DX005 (ip), vehicle: saline
  T/C: 10 % of control

## Cc1c2cc[n+](CCN3CCCCC3)cc2c(C)c2c1[nH]c1ccc(O)cc12
endpoint: median tumor weight change, dose: 7.81 mg/kg/injection, schedule: Q01DX001 (ip), vehicle: suspension in saline
  T/C: 83 % of control
endpoint: median tumor weight change, dose: 15.6 mg/kg/injection, schedule: Q01DX001 (ip), vehicle: suspension in saline
  T/C: 102 % of control and 116 % of control

## CCN(CC)c1ccc2[nH]c3c(C(N)=O)cc(=O)c(=O)c=3oc2c1
endpoint: median tumor weight change, dose: 62.5 mg/kg/injection, schedule: Q01DX001 (ip), vehicle: saline with Tween-80
  T/C: 92 % of control
endpoint: median tumor weight change, dose: 250.0 mg/kg/injection, schedule: Q01DX001 (ip), vehicle: saline with Tween-80
  T/C: 121 % of control
endpoint: median tumor weight change, dose: 500.0 mg/kg/injection, schedule: Q01DX001 (ip), vehicle: saline with Tween-80
  T/C: 28 % of control

## COc1cccc2c1C(=O)c1c(O)c3c(c(O)c1C2=O)C[C@@](O)(/C(C)=N/NC(=O)c1cccc([N+](=O)[O-])c1)C[C@@H]3OC1CC(N)C(O)C(C)O1 (some centres not stated)
endpoint: mean tumor weight, dose: 4.0 mg/kg/injection, schedule: Q07DX004 (ip), vehicle: saline
  T/C: 98 % of control
endpoint: mean tumor weight, dose: 8.0 mg/kg/injection, schedule: Q07DX004 (ip), vehicle: saline
  T/C: 51 % of control
endpoint: mean tumor weight, dose: 16.0 mg/kg/injection, schedule: Q07DX004 (ip), vehicle: saline
  T/C: 94 % of control
endpoint: mean tumor weight, dose: 32.0 mg/kg/injection, schedule: Q07DX004 (ip), vehicle: saline
  T/C: 1 % of control
endpoint: median tumor weight (est.), dose: 4.0 mg/kg/injection, schedule: Q07DX005 (ip), vehicle: saline
  T/C: 93 % of control
endpoint: median tumor weight (est.), dose: 8.0 mg/kg/injection, schedule: Q07DX005 (ip), vehicle: saline
  T/C: 41 % of control
endpoint: median tumor weight (est.), dose: 16.0 mg/kg/injection, schedule: Q07DX005 (ip), vehicle: saline
  T/C: 5 % of control

## COc1ccc(CC2C(=O)NC(C)C(=O)N(C)C3Cc4ccc(cc4)Oc4cc(ccc4O)CC(C(=O)NC(C)C(=O)NC(C)C(=O)N2C)N(C)C3=O)cc1 (configuration not stated)
endpoint: median tumor weight change, dose: 1.25 mg/kg/injection, schedule: Q01DX001 (ip), vehicle: saline with Tween-80
  T/C: 55 % of control
endpoint: median tumor weight change, dose: 2.5 mg/kg/injection, schedule: Q01DX001 (ip), vehicle: saline with Tween-80
  T/C: 111 % of control
endpoint: median tumor weight change, dose: 5.0 mg/kg/injection, schedule: Q01DX001 (ip), vehicle: saline with Tween-80
  T/C: 115 % of control
endpoint: median tumor weight change, dose: 10.0 mg/kg/injection, schedule: Q01DX001 (ip), vehicle: saline with Tween-80
  T/C: 56 % of control
endpoint: median tumor weight change, dose: 20.0 mg/kg/injection, schedule: Q01DX001 (ip), vehicle: saline with Tween-80
  T/C: 81 % of control

## COc1ccc(C(=O)C(CN(C)C)CN(C)C)cc1
endpoint: median tumor weight change, dose: 7.81 mg/kg/injection, schedule: Q01DX001 (ip), vehicle: saline
  T/C: 103 % of control
endpoint: median tumor weight change, dose: 15.62 mg/kg/injection, schedule: Q01DX001 (ip), vehicle: saline
  T/C: 88 % of control
endpoint: median tumor weight change, dose: 31.25 mg/kg/injection, schedule: Q01DX001 (ip), vehicle: saline
  T/C: 84 % of control

## c1csc(C[N+]23CN4CN(CN(C4)C2)C3)c1
endpoint: median tumor weight change, dose: 250.0 mg/kg/injection, schedule: Q01DX001 (ip), vehicle: saline
  T/C: 80 % of control

## [Cl][Pt+2][Cl].[NH-]CC1(C[NH-])CCC1
endpoint: median tumor weight change, dose: 12.5 mg/kg/injection, schedule: Q01DX001 (ip), vehicle: suspension in saline
  T/C: 79 % of control

## CO[C@H]1C[C@@H]2CC[C@@H](C)[C@@](O)(O2)C(=O)C(=O)N2CCCC[C@H]2C(=O)O[C@H]([C@H](C)C[C@@H]2CC[C@@H](O)[C@H](OC)C2)CC(=O)[C@H](C)C=C(C)[C@@H](O)[C@@H](OC)C(=O)[C@H](C)C[C@H](C)/C=C/C=C/C=C1C
endpoint: median tumor weight (est.), dose: 3.12 mg/kg/injection, schedule: Q07DX005 (ip), vehicle: clinical formulation
  T/C: 48 % of control
endpoint: median tumor weight (est.), dose: 3.12 mg/kg/injection, schedule: Q07DX005 (ip), vehicle: saline with Tween-80
  T/C: 54 % of control
endpoint: median tumor weight (est.), dose: 6.25 mg/kg/injection, schedule: Q07DX005 (ip), vehicle: clinical formulation
  T/C: 58 % of control
endpoint: median tumor weight (est.), dose: 6.25 mg/kg/injection, schedule: Q07DX005 (ip), vehicle: saline with Tween-80
  T/C: 49 % of control
endpoint: median tumor weight (est.), dose: 12.5 mg/kg/injection, schedule: Q07DX005 (ip), vehicle: clinical formulation
  T/C: 77 % of control
[1]
  T/C: 29 % of control and 40 % of control
endpoint: median tumor weight (est.), dose: 25.0 mg/kg/injection, schedule: Q07DX005 (ip), vehicle: clinical formulation
  T/C: 60 % of control
[2]
  T/C: 25 % of control and 31 % of control
endpoint: median tumor weight (est.), dose: 50.0 mg/kg/injection, schedule: Q07DX005 (ip), vehicle: clinical formulation
  T/C: 50 % of control
[3]
  T/C: 22 % of control and 23 % of control
endpoint: median tumor weight (est.), dose: 100.0 mg/kg/injection, schedule: Q07DX005 (ip), vehicle: clinical formulation
  T/C: 63 % of control
[4]
  T/C: 14 % of control and 20 % of control
endpoint: median tumor weight (est.), dose: 200.0 mg/kg/injection, schedule: Q07DX005 (ip), vehicle: clinical formulation
  T/C: 22 % of control
[5]
  T/C: 10 % of control and 23 % of control

## COc1cc(C[C@H]2c3cc(OC)c(OC)cc3CCN2C)c(Oc2cc3c(cc2OC)-c2c(OC)c(OC)cc4c2[C@H](C3)N(C)CC4)cc1OC
endpoint: median tumor weight (est.), dose: 12.5 mg/kg/injection, schedule: Q07DX005 (ip), vehicle: saline
  T/C: 118 % of control
endpoint: median tumor weight (est.), dose: 50.0 mg/kg/injection, schedule: Q07DX005 (ip), vehicle: saline
  T/C: 95 % of control
endpoint: median tumor weight (est.), dose: 200.0 mg/kg/injection, schedule: Q07DX005 (ip), vehicle: saline
  T/C: 52 % of control
endpoint: median tumor weight (est.), dose: 400.0 mg/kg/injection, schedule: Q07DX005 (ip), vehicle: saline
  T/C: 67 % of control

## CSc1cc(=O)n2c3ccccc3c3ccnc1c32
endpoint: median tumor weight (est.), dose: 2.5 mg/kg/injection, schedule: Q07DX005 (ip), vehicle: saline with Tween-80
  T/C: 77 % of control
endpoint: median tumor weight (est.), dose: 5.0 mg/kg/injection, schedule: Q07DX005 (ip), vehicle: saline with Tween-80
  T/C: 74 % of control
endpoint: median tumor weight (est.), dose: 10.0 mg/kg/injection, schedule: Q07DX005 (ip), vehicle: saline with Tween-80
  T/C: 74 % of control
endpoint: median tumor weight (est.), dose: 20.0 mg/kg/injection, schedule: Q07DX005 (ip), vehicle: saline with Tween-80
  T/C: 65 % of control
endpoint: median tumor weight (est.), dose: 40.0 mg/kg/injection, schedule: Q07DX005 (ip), vehicle: saline with Tween-80
  T/C: 119 % of control
endpoint: median tumor weight (est.), dose: 80.0 mg/kg/injection, schedule: Q07DX005 (ip), vehicle: saline with Tween-80
  T/C: 59 % of control
